What was measured:
[1] = system: pruritus induced by serotonin and PGE2; experiment: inhibitory effect against pruritus induced by serotonin and PGE2 (scratching count); assay type: in vivo; conditions: male ICR mice, scratching counted for 30 minutes, vs control
Experimental: The inhibitory effect against pruritus induced by serotonin and PGE2.
The back of male ICR mice (Charles River Japan Inc., 5 week-old) were sheared by hair clipper. 0.5% MC or the above test compound (100 mg/5 ml/kg or 300 mg/5 ml/kg) was administered orally. After 15 minutes or 1hour, serotonin (3 μg) or mixed solution of serotonin (3 μg) and PGE2 (1nmol) was injected intradermally (20 μl) into the. back of mouse. Scratching of the injected site or the perimeter by the behind paws of mouse was characterized as itch. The scratching was counted for 30 minutes from the injection.
0.5% MC [administration at 15 minutes before the induction]/serotonin (n=10) 0.5% MC [administration at 15 minutes before the induction]/serotonin+PGE2 (n=10) compound (1) [administration at 15 minutes before the induction]/serotonin+PGE2 (n=10) compound (2) [administration at 15 minutes before the
0.5% MC [administration at 1hour before the induction]/serotonin (n=10) 0.5% MC [administration at 1hour before the induction]/serotonin+PGE2 (n=10) compound (3) [administration at 1hour before the induction]/serotonin+PGE2 (n=10)

[2] = system: model of allergic dermatitis; experiment: inhibitory effect against pruritus in a model of allergic dermatitis (DNFB hapten, scratching count); assay type: in vivo; conditions: male BALB/c mice; 0.15% DNFB weekly; 100 mg/5 ml/kg orally; scratching from 3 to 5 hours and from 24 to 26 hours after fifth application of hapten; vs control; FIG. 3
Experimental: The inhibitory effect against pruritus in a model of allergic dermatitis. The back of male BALB/c mice (Charles River Japan Inc., 6 week-old) were sheared by hair clipper. 0.15% dinitrofluorobenzene (DNFB) dissolved in mixed solution of acetone and olive oil as hapten was administered 50 μl by micro pipette in the back once a week. After forth applications, the scratching was measured from 3 to 5 hours and from 24 to 26 hours and mice were divided to each group referring the scratch data. 0.5% MC or the test compound (100 mg/5 ml/kg) was administered orally forth every 30 minutes from 30 minutes before 3 and 24 hours, respectively after fifth application of hapten. The scratching was videotaped from 3 to 5 hours and from 24 to 26 hours, respectively, after fifth application of hapten. The scratching was counted and estimated.

[3] = 100 mg/5 ml/kg orally 15 minutes before intradermal serotonin (3 μg) + PGE2 (1 nmol), FIG. 1

O=C([O-])CCc1ccc(Cn2cccn2)cc1OCCc1ccc2ccccc2c1.[Na+] [Compound (1), sodium 3-(2-(2-(naphthalen-2-yl)ethoxy)-4-(pyrazol-1-ylmethyl)phenyl)propanoate]
number of scratching in serotonin and PGE2-induced pruritus [1, 3]: inhibited significantly against control

CC(C)CC(C(=O)Nc1cc(C#N)ccc1Cc1ccccc1C(=O)[O-])c1cccc2ccccc12.[Na+] (stereo not shown) [Compound (2), sodium 2-[4-cyano-2-[4-methyl-2-(1-naphthyl)pentanoylamino]phenylmethyl]benzoate]
number of scratching in serotonin and PGE2-induced pruritus [1, 3]: inhibited significantly against control

COc1ccc(Br)cc1S(=O)(=O)NC(=O)/C=C/c1ccccc1Cc1ccc2ccccc2c1 [Compound (3), (2E)-N-(5-bromo-2-methoxyphenylsulfonyl)-3-(2-(naphthalen-2-ylmethyl)phenyl) -2-propenamide]
number of scratching in serotonin and PGE2-induced pruritus ([1]; 300 mg/5 ml/kg orally 1 hour before intradermal serotonin (3 μg) + PGE2 (1 nmol), FIG. 2): inhibited significantly against control

O=C(O)CCc1ccc(Cn2cccn2)cc1OCCc1ccc2ccccc2c1 [Compound (4), 3-(2-(2-(naphthalen-2-yl)ethoxy)-4-(pyrazol-1-ylmethyl)phenyl)propanoic acid]
number of scratching in allergic dermatitis model [2]: inhibited significantly against control

— patent US20040235955A1, “Remedies for pruritus” (priority 2001, published 2004)
